The record followed here is patent US11999746B2, “Compounds” (GlaxoSmithKline Intellectual Property Development Limited, priority 2014, dated 2024).

Counter-ions that a name gives are not always drawn.

Experiment [1] concerns experimental autoimmune encephalomyelitis (EAE) rats. The experiment can be described thus: Rat experimental autoimmune encephalomyelitis (EAE) model, preventive treatment. It counts as in vivo. The settings on record: compound administered from day 0 until day 22. The procedure:
A further study was carried out to study the impact of Lp-PLA2 inhibitors on modulating M1/M2 imbalance. In this study, rats were induced to develop experimental autoimmune encephalomyelitis (EAE) by immunization with myelin basic protein (MBP) antigen and treated with a known Lp-PLA2 inhibitor: 5-((9-Methoxy-4-oxo-6,7-dihydro-4H-pyrimido[6,1-a]isoquinolin-2-yl)oxy)-2-(3-(trifluoromethyl)phenoxy)benzonitrile (See PCT application no. PCT/CN2011/001597). In this preventive treatment model, the compound was administered at day 0 (day of immunization) and continued to administer until day 22. The study lasted for 25 days. Rats were subsequently monitored for symptoms of EAE. Rats were immunized with MBP to develop EAE and symptoms were monitored daily. Plasma Lp-PLA2 activity, OxLDL, and LysoPC concentration were determined at different time points through the course of EAE.

For experiment [2], the system named is proinflammatory (M1) and anti-inflammatory (M2) markers in splenic and CNS infiltrating macrophages. The experiment can be described thus: Ex vivo analysis of M1 and M2 markers in macrophages of EAE rats by realtime PCR. On the set-up: species or system rat. The conditions noted are these: macrophages of compound treated EAE rats, splenic macrophages harvested at day 13 post MBP-immunization. On the procedure:
Ex vivo analysis of proinflammatory (M1) and anti-inflammatory (M2) markers in control and compound treated EAE rats. Splenic macrophages were harvested at day 13 post MBP-immunization and assayed for expression of a variety of markers by realtime PCR. CNS infiltrating cells were harvested and macrophages were analyzed for expression of M1 and M2 markers by realtime PCR.

The target in experiment [3] is T1, recombinant human Lp-PLA2 (Homo sapiens, UniProt Q13093).
T1 sequence (Q13093 22-441): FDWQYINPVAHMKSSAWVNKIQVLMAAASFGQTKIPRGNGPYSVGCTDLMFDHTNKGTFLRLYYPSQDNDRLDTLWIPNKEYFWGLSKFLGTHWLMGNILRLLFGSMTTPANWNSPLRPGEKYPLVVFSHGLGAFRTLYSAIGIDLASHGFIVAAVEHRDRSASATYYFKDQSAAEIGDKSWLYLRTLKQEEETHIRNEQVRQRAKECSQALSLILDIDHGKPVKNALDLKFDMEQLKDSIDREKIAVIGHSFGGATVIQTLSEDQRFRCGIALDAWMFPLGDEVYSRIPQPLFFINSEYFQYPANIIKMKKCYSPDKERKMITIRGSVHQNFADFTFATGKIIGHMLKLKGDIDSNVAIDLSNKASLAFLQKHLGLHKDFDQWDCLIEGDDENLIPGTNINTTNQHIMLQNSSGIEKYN
The experiment can be described thus: (1b) hrThioPAF assay, recombinant human Lp-PLA2. It counts as biochemical. The conditions noted are these: Examples 266-412 were tested here, one experiment or average of multiple experiments, read-out: rhLp-PLA2 (pIC50) (converted). The gist of the method:
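Fluorogenic assay: 20 pM rhLp-PLA2 in 50 mM HEPES pH 7.4, 150 mM NaCl, 1 mM CHAPS with 1:3 serially diluted compounds; substrate mix of 40 μM 2-thio-PAF, 40 μM CPM, 400 μM NEM (pre-addition levels). 20 min at 25 °C in the dark; fluorescence ex 380/em 485 nm, pIC50 by curve fitting.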

Experiment [4] addresses T2, Lp-PLA2 in human plasma (Homo sapiens, UniProt Q13093).
T2 construct: from tissue; host or cells: pooled human plasma
T2 sequence (Q13093 22-441): T1 sequence (Q13093 22-441)
The experiment can be described thus: (3b) Lp-PLA2 human plasma alternative Thio-PAF assay. It is filed as biochemical. The settings on record: (3b) alternative Thio-PAF assay, pooled human plasma; Examples of 266-412 were tested here; read-out: pIC50 in the Lp-PLA2 human plasma assay (converted). The gist of the method: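 Pooled human plasma was preincubated with compound for 15 min at RT. Substrate solution (2 mM 2-thio-PAF, 52 μM CPM, 2.5 mM NEM in 50 mM HEPES pH 7.4, 150 mM NaCl, 1 mM CHAPS; pre-addition concentrations) was added, and the reaction was quenched with 5% TFA after 3 min. Fluorescence was read at ex 380/em 485 nm and fitted to give pIC50.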

With `COc1ccc2c(c1)CCn1c-2cc(Oc2ccc(Oc3cccc(C(F)(F)F)c3)c(C#N)c2)nc1=O` [5-((9-Methoxy-4-oxo-6,7-dihydro-4H-pyrimido[6,1-a]isoquinolin-2-yl)oxy)-2-(3-(trifluoromethyl)phenoxy)benzonitrile], in experiment [1] (rat EAE plasma), the “plasma Lp-PLA2 activity” value is “decreased” and the “plasma LysoPC levels” value is listed as “decreased”. Also, the “clinical disease (symptoms of EAE)” value in experiment [1] (rats immunized with MBP, study lasted 25 days) is “reduction in clinical disease”. In experiment [2], the “M1 (proinflammatory) markers” value is reported as “decrease” and the “M2 (anti-inflammatory) markers” value is recorded as “increase”.

In the case of `O=c1nc(OCc2cc(F)c(Oc3ccnc(C(F)(F)F)c3)c(F)c2)cc2n1C[C@@H]1C[C@H](O)CN21` [Example E383, (7S,8aS)-3-((3,5-Difluoro-4-((2-(trifluoromethyl)pyridin-4-yl)oxy)benzyl)oxy)-7-hydroxy-7,8,8a,9-tetrahydropyrrolo[1′,2′:3,4]imidazo[1,2-c]pyrimidin-1(6H)-one], the results for the IC50 in experiment [3] and in experiment [4] were not above 1 nM and not above 100 nM, respectively.

For the compound `CC(=O)N1CCN2c3cc(OCc4ccc(F)c(F)c4)nc(=O)n3CC2C1` (stereo not drawn) [Example E315, 2-Acetyl-7-((3,4-difluorobenzyl)oxy)-3,4,11,11a-tetrahydro-1H-pyrazino[1′,2′:3,4]imidazo[1,2-c]pyrimidin-9(2H)-one], the IC50 in experiment [3] and in experiment [4] was not above 100 nM in each case.

On to `NC1(C(=O)N2CCN3c4cc(OCc5ccc(F)c(F)c5)nc(=O)n4CC3C2)CCC1` (stereo not drawn) [Example E344, 2-(1-Aminocyclobutanecarbonyl)-7-((3,4-difluorobenzyl)oxy)-3,4,11,11a-tetrahydro-1H-pyrazino[1,2′:3,4]imidazo[1,2-c]pyrimidin-9(2H)-one], for which the results for the IC50 in experiment [3] and in experiment [4] were not above 10000 nM and not above 100 nM, respectively.

For `N#Cc1cc(COc2cc3n(c(=O)n2)CC2CN(C(=O)C(F)(F)F)CCN32)ccc1F` (stereo not drawn) [Example E323, 2-Fluoro-5-(((9-oxo-2-(2,2,2-trifluoroacetyl)-2,3,4,9,11,11a-hexahydro-1H-pyrazino[1′,2′:3,4]imidazo[1,2-c]pyrimidin-7-yl)oxy)methyl)benzonitrile], the IC50 is not above 10000 nM in experiment [3] and not above 100 nM in experiment [4].

Turning to `CS(=O)(=O)N1CCN2c3cc(OCc4ccc(F)c(C#N)c4)nc(=O)n3CC2C1` (stereo not drawn) [Example E286, 2-Fluoro-5-(((2-(methylsulfonyl)-9-oxo-2,3,4,9,11,11a-hexahydro-1H-pyrazino[1′,2′:3,4]imidazo[1,2-c]pyrimidin-7-yl)oxy)methyl)benzonitrile hydrochloride], the values for the IC50 in experiment [3] and in experiment [4] were not above 10000 nM and not above 100 nM, respectively.

`O=c1nc(OCc2cc(F)c(Oc3ccnc(C(F)(F)F)c3)c(F)c2)cc2n1CC1CS(=O)(=O)CCN21` (stereo not drawn) [Example E370, 7-((3,5-Difluoro-4-((2-(trifluoromethyl)pyridin-4-yl)oxy)benzyl)oxy)-3,4,11,11a-tetrahydropyrimido[6′,1′:2,3]imidazo[5,1-c][1,4]thiazin-9(1H)-one-2,2-dioxide]: the IC50 in experiment [3] was not above 10000 nM; in experiment [4] it was not above 100 nM.

Turning to `O=c1nc(OCc2cc(F)c(Oc3ccnc(C(F)(F)F)c3)c(F)c2)cc2n1C[C@H]1C[C@@H](O)CN21` [Example E384, (7R,8aR)-3-((3,5-Difluoro-4-((2-(trifluoromethyl)pyridin-4-yl)oxy)benzyl)oxy)-7-hydroxy-7,8,8a,9-tetrahydropyrrolo[1′,2′:3,4]imidazo[1,2-c]pyrimidin-1(6H)-one], the IC50 in experiment [3] was not above 10000 nM; in experiment [4], not above 100 nM.

Take `O=c1nc(OCc2cc(F)c(Oc3cncc(C(F)(F)F)c3)c(F)c2)cc2n1CC1CS(=O)(=O)CCN21` (stereo not drawn) [Example E373, 7-((3,5-Difluoro-4-((5-(trifluoromethyl)pyridin-3-yl)oxy)benzyl)oxy)-3,4,11,11a-tetrahydropyrimido[6′,1′:2,3]imidazo[5,1-c][1,4]thiazin-9(1H)-one 2,2-dioxide]: the IC50 in experiment [3] is not above 10000 nM; in experiment [4] it was not above 100 nM.
